# According to article PMC5351590, “Cucurbitacin B exerts anti-cancer activities in human multiple myeloma cells in vitro and in vivo by modulating multiple cellular pathways” (Oncotarget, 2016):
# Target: T1, Aurora A (Homo sapiens, UniProt O14965)
# T1 construct: gene AURKA
# T1 sequence (O14965 1-403): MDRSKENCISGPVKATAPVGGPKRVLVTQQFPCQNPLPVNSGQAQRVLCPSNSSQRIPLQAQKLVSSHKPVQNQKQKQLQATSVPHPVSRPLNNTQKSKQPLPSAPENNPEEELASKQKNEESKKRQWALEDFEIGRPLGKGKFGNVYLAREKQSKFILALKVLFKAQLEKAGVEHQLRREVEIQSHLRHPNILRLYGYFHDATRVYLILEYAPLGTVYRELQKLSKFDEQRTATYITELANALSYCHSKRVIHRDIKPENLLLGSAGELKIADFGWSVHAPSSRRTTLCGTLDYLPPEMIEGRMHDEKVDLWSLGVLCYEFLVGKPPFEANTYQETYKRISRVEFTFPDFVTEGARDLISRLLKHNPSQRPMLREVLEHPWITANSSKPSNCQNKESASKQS
# Experiment: radiometric […]-ATP kinase assay with purified kinase (Dundee panel; dose-response)
# Format: biochemical
compound,measurement,value
"CC(=O)OC(C)(C)/C=C/C(=O)[C@](C)(O)[C@H]1[C@H](O)C[C@@]2(C)[C@@H]3CC=C4[C@@H](C[C@H](O)C(=O)C4(C)C)[C@]3(C)C(=O)C[C@]12C [CuB, Cucurbitacin B]",IC50,100 nM
